Results from US20260176232A1, “PROBENECID COMPOUNDS FOR THE TREATMENT OF INFLAMMASOME-MEDIATED DERMATOLOGICAL CONDITIONS” (Bacainn Biotherapeutics, Ltd., priority 2022, published 2026).

What was measured:
[1] = test system: NLRP1-mediated inflammasome activity; experiment: IC50 curve, L18-MDP-induced IL-1β secretion in LPS-primed immortalized BMDMs; assay type: cell-based, murine; conditions: L18-MDP 100 μg/mL; drug 3.9-350 μM; FIG. 4B; read-out: half maximal inhibitory concentration (IC50), NLRP1-mediated inflammasome activity
Experimental: FIGS. 4A and 4B are charts showing inflammasome activity as determined by measuring secreted IL-1β concentrations in murine immortalized BMDMs pre-activated with lipopolysaccharide (LPS; 100 ng/mL) for 3 h. The macrophages were stimulated with either the NLRP3 activator, nigericin (3 μM) (FIG. 4A) or the NLRP1 agonist L18-MDP (100 μg/mL) (FIG. 4B) and treated or not with BT032 (3.9-350 μM). […] BT032 versus normalized responses (variable slope).

AIM2 inflammasome = experiment: IL-1β secretion in macrophages challenged with poly dA:dT (FIG. 4C); assay type: cell-based, human; conditions: BT032 20, 100 μM; 6 h
Description: (§1) In vitro stimulation of human macrophages.

NLRP1 inflammasome [2] = experiment: IL-1β secretion in macrophages challenged with L18-MDP (FIG. 7); assay type: cell-based, human; conditions: 20, 100, 350 μM, L18-MDP 100 μg/mL 16 hours, secreted IL-1β
Description: as §1

NLRP1 inflammasome [3] = experiment: L18-MDP-induced IL-1β secretion in WT or NLRP3-/- immortalized BMDMs (FIG. 8); assay type: cell-based, murine; conditions: 20, 50, 100, 350 μM
Description: In vitro stimulation of murine macrophages.

[4] = test system: anisomycin-induced psoriatic dermatitis; experiment: Anisomycin-induced psoriatic dermatitis, topical treatment of murine ear; set-up: species or system C57BL/6 mice; conditions: mouse, in vivo
Description: Psoriasis is a chronic inflammatory skin disease characterized by IL-17-mediated immune responses, and p38 is known to be highly activated in the psoriatic epidermis. In this example, a p38 activator, anisomycin, is applied daily to murine skin. The probenecid analogs of the present technology (e.g., BT032) are applied to murine psoriatic models topically or to human psoriatic skin specimens ex vivo. Mice. Eight- to 12-week old female mice are used in this study. All animals are of the C57BL/6 genetic background. Animals are maintained under specific pathogen-free conditions. Anisomycin treatment. Anisomycin solution (2 mg/mL in 99.5% ethanol) is applied to the inner and outer sides of a murine ear once daily at a dosage of 10 μL per side of the ear. Histological analyses. For histologic examination, ear skin samples are fixed with 10% formalin and embedded in paraffin. Sections along the median plane of the ear with a thickness of 5 μm are prepared and subjected to staining with hematoxylin and eosin (H&E). Images of two consecutive microscopic fields of H&E-stained sections are obtained using a digital microscope. Time course changes in ear thickness are measured. Thickness is measured daily before treatment.

[5] = test system: lesional skin from patients with psoriasis; experiment: Psoriasis-related gene expression in psoriatic lesion biopsy specimens ex vivo; assay type: cell-based, human; conditions: 500 ng/mL, 12 hours
Experimental: Human samples. Biopsy specimens of psoriatic lesions are obtained from about 10 patients after obtaining informed consent. Two adjacent biopsy specimens are taken from each patient. All specimens are cut at the upper dermis, and the epidermal side is used for the experiment. As a medium, HuMedia-KB2 (Kurabo) containing insulin, human epidermal growth factor, bovine pituitary extract, and gentamicin/amphotericin B is used, according to the manufacturer's protocol. One specimen is cultured with vehicle (DMSO), and the adjacent one was cultured with BT032 (500 ng/mL) for 12 hours.
RNA isolation and the quantitative RT-PCR analysis. Total RNA is isolated using Trizol (Invitrogen, Carlsbad, CA) or RNeasy kits (Qiagen, PL Venlo, Netherlands) according to the manufacturer's protocol. Complementary DNA is reverse transcribed using a Prime Script RT reagent kit (Takara Bio, Shiga, Japan). The quantitative RT-PCR is performed by monitoring the synthesis of double-stranded DNA during the various PCR cycles with SYBR Green I (Roche, Basel, Switzerland) and the LightCycler real-time PCR apparatus (Roche), according to the manufacturer's instructions. All primers are obtained from Greiner Japan (Tokyo, Japan).

NLRP3 inflammasome [6] = molecular target: T1, NLRP3 inflammasome (Mus musculus, UniProt Q8R4B8); experiment: IL-1β secretion in macrophages challenged with nigericin, MSU or silica (FIG. 4C); conditions: BT032 20, 100 μM; MCC950 5 μM; secreted IL-1β
T1 sequence (Q8R4B8 whole entry): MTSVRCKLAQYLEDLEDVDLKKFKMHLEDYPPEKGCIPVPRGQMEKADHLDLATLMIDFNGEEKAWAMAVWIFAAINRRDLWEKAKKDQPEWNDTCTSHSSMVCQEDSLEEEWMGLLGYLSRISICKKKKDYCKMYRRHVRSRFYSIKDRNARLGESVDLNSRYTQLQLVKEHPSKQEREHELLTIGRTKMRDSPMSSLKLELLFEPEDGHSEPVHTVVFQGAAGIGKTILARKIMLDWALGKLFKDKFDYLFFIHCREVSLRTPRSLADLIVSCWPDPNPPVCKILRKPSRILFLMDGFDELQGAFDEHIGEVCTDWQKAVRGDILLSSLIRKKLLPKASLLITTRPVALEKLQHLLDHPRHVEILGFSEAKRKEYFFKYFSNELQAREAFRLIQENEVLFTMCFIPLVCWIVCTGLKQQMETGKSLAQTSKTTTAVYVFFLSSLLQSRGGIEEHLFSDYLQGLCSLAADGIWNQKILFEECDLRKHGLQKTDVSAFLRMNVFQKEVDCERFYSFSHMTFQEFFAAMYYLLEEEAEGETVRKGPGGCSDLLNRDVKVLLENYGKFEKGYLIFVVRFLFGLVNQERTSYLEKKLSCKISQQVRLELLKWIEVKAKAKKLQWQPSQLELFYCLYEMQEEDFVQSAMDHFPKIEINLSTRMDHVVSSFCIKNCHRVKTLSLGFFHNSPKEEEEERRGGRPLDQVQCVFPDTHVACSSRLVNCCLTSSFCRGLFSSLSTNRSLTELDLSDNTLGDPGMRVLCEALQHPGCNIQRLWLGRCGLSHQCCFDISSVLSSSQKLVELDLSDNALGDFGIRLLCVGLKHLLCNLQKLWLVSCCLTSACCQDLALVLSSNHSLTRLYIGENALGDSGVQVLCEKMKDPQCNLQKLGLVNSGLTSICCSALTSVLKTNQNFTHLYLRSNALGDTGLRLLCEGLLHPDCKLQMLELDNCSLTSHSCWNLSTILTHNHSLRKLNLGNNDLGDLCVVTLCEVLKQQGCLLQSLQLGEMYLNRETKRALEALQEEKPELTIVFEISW

NLRP3 inflammasome [7] = molecular target: T1, NLRP3 inflammasome; experiment: IL-1β secretion (ELISA) in LPS-primed iBMDMs stimulated with silica or nigericin; assay type: cell-based, murine (C57BL/6); set-up: endogenous in cells; host or cells: immortalized wild-type C57BL/6 bone-marrow derived macrophages (iBMDMs), LPS-primed; conditions: compared with probenecid in DMSO or PBS
Experimental: In vitro stimulation of murine macrophages. Immortalized wild-type C57BL/6 bone-marrow derived macrophages (iBMDMs) were grown in DMEM supplemented with 10% heat inactivated FBS and 2 mM glutamine. iBMDMs were seeded in 96-well plates 24 hours prior incubation with lipopolysaccharide (LPS; 100 ng/mL) for 3 hours. Cells were then incubated with a control probenecid compound (probenecid dissolved in DMSO (Prob/D), probenecid dissolved in PBS (Prob/P)) or one of the probenecid analogs of the present technology (BT032, BT132, BT133, BT134, BT135, BT136, BT137, BT138, BT139, or BT140) at concentrations of 300 μM, 150 μM, 30 μM, or 3 μM 1 hour prior to stimulation with NLRP3 inflammasome activators, silica ([…]) or nigericin (6 μM). After an additional 6 hours, cell supernatants were collected and levels of IL-1β were quantified by ELISA. These experiments were run in triplicate three times.

CCCN(CCC)S(=O)(=O)c1ccc(-c2ccc(CCCC(=O)O)cc2)cc1 [BT032, 4-(4′-(N,N-dipropylsulfamoyl)-[1,1′-biphenyl]-4-yl)butanoic acid]
IC50 [1]: 30 µM | AIM2 (poly dA:dT)-mediated inflammasome activation (AIM2 inflammasome): no effect | NLRP1 (L18-MDP)-induced inflammasome activation (NLRP1 inflammasome [2]): dose-dependently inhibited | NLRP1 (L18-MDP)-induced inflammasome activation as measured by IL-1β secretion (NLRP1 inflammasome [3]; NLRP3-/- macrophages): dose-dependently inhibited | NLRP1 (L18-MDP)-induced inflammasome activation as measured by IL-1β secretion (NLRP1 inflammasome [3]; WT macrophages): dose-dependently inhibited | ear thickness, scaly erythema, and histologic changes induced by anisomycin [4]: attenuated | expression levels of IL1B, IL6, IL23A, IL17A versus control specimens [5]: lower expression levels | NLRP3 (Nigericin, MSU, Silica)-induced inflammasome activation (NLRP3 inflammasome [6]): dose-dependently inhibited | potency versus control probenecid compounds (IL-1β secretion) (NLRP3 inflammasome [7]): more potent than the control probenecid compounds
